In ChEMBL document CHEMBL1671764, “In vitro and in vivo activities of LCB01-0371, a new oxazolidinone” (2010):
Calls of active or inactive are those of the source.

Tests used:
Staphylococcus aureus [1] = test: Antibacterial activity against methicillin-susceptible Staphylococcus aureus Giorgio assessed as bacterial regrowth at 4 times MIC after 24 hrs by […] method; assay type: functional, organism-based
Staphylococcus aureus [2] = test: Antibacterial activity against methicillin-resistant Staphylococcus aureus p125 assessed as bacteriostatic at 8 times MIC after 24 hrs by […] method; assay type: functional, organism-based
Staphylococcus aureus [3] = test: Antibacterial activity against methicillin-susceptible Staphylococcus aureus Giorgio assessed as bacteriostatic at 8 times MIC after 24 hrs by […] method; assay type: functional, organism-based
Staphylococcus aureus [4] = test: Antibacterial activity against methicillin-resistant Staphylococcus aureus p125 assessed as bacteriostatic at 4 times MIC after 24 hrs by […] method; assay type: functional, organism-based
Staphylococcus aureus [5] = test: Antibacterial activity against methicillin-susceptible Staphylococcus aureus Giorgio assessed as bacteriostatic at 4 times MIC after 24 hrs by […] method; assay type: functional, organism-based
Staphylococcus aureus [6] = test: Antibacterial activity against methicillin-resistant Staphylococcus aureus p125 assessed as bacteriostatic at 2 times MIC after 24 hrs by […] method; assay type: functional, organism-based
Staphylococcus aureus [7] = test: Antibacterial activity against methicillin-susceptible Staphylococcus aureus Giorgio assessed as bacteriostatic at 2 times MIC after 24 hrs by […] method; assay type: functional, organism-based
Staphylococcus aureus [8] = test: Antibacterial activity against methicillin-resistant Staphylococcus aureus p125 assessed as bacteriostatic at MIC after 24 hrs by […] method; assay type: functional, organism-based
Staphylococcus aureus [9] = test: Antibacterial activity against methicillin-susceptible Staphylococcus aureus Giorgio assessed as bacteriostatic at MIC after 24 hrs by […] method; assay type: functional, organism-based
Haemophilus influenzae [10] = test: Antibacterial activity against 7.5 x 10^8 CFU Haemophilus influenzae hd2 after 18 hrs by CLSI 2-fold agar dilution method; assay type: functional; settings: hd2, 18 h
Streptococcus pneumoniae [11] = test: Antibacterial activity against 1 x 10^4 CFU Streptococcus pneumoniae ATCC 6305 after 18 hrs by CLSI 2-fold agar dilution method; assay type: functional; settings: ATCC 6305, 18 h
Enterococcus faecalis [12] = test: Antibacterial activity against 2 x 10^8 CFU Enterococcus faecalis u810 after 18 hrs by CLSI 2-fold agar dilution method; assay type: functional; settings: u810, 18 h
Staphylococcus aureus [13] = test: Antibacterial activity against 1 x 10^8 CFU methicillin-resistant Staphylococcus aureus p125 after 18 hrs by CLSI 2-fold agar dilution method; assay type: functional; settings: p125, 18 h
Staphylococcus aureus [14] = test: Antibacterial activity against 1 x 10^7 CFU methicillin-susceptible Staphylococcus aureus Giorgio after 18 hrs by CLSI 2-fold agar dilution method; assay type: functional
Haemophilus influenzae [15] = test: Antibacterial activity against 10^4 to 10^5 CFU Haemophilus influenzae after 18 hrs by CLSI 2-fold agar dilution method; assay type: functional
Moraxella catarrhalis = test: Antibacterial activity against 10^4 to 10^5 CFU Moraxella catarrhalis after 18 hrs by CLSI 2-fold agar dilution method; assay type: functional
Enterococcus = test: Antibacterial activity against 10^4 to 10^5 CFU vancomycin-resistant Enterococcus after 18 hrs by CLSI 2-fold agar dilution method; assay type: functional
Enterococcus faecium = test: Antibacterial activity against 10^4 to 10^5 CFU Enterococcus faecium after 18 hrs by CLSI 2-fold agar dilution method; assay type: functional
Enterococcus faecalis [16] = test: Antibacterial activity against 10^4 to 10^5 CFU Enterococcus faecalis after 18 hrs by CLSI 2-fold agar dilution method; assay type: functional
Streptococcus pyogenes = test: Antibacterial activity against 10^4 to 10^5 CFU Streptococcus pyogenes after 18 hrs by CLSI 2-fold agar dilution method; assay type: functional
Staphylococcus [17] = test: Antibacterial activity against 10^4 to 10^5 CFU methicillin-resistant coagulase-negative Staphylococcus after 18 hrs by CLSI 2-fold agar dilution method; assay type: functional
Streptococcus pneumoniae [18] = test: Antibacterial activity against 10^4 to 10^5 CFU Streptococcus pneumoniae after 18 hrs by CLSI 2-fold agar dilution method; assay type: functional
Staphylococcus [19] = test: Antibacterial activity against 10^4 to 10^5 CFU methicillin-susceptible coagulase-negative Staphylococcus after 18 hrs by CLSI 2-fold agar dilution method; assay type: functional
Staphylococcus aureus [20] = test: Antibacterial activity against 10^4 to 10^5 CFU methicillin-resistant Staphylococcus aureus after 18 hrs by CLSI 2-fold agar dilution method; assay type: functional
Staphylococcus aureus [21] = test: Antibacterial activity against 10^4 to 10^5 CFU methicillin-susceptible Staphylococcus aureus after 18 hrs by CLSI 2-fold agar dilution method; assay type: functional
Staphylococcus aureus [22] = test: Antibacterial activity against methicillin-resistant Staphylococcus aureus p125 assessed as bacterial regrowth at 4 times MIC after 24 hrs by […] method; assay type: functional, organism-based
Staphylococcus aureus [23] = test: Antibacterial activity against methicillin-susceptible Staphylococcus aureus Giorgio assessed as bacterial regrowth at 8 times MIC after 24 hrs by […] method; assay type: functional, organism-based
Staphylococcus aureus [24] = test: Antibacterial activity against methicillin-resistant Staphylococcus aureus p125 assessed as bacterial regrowth at 8 times MIC after 24 hrs by […] method; assay type: functional, organism-based
Haemophilus influenzae [25] = test: Antibacterial activity against 7.5 x 10^8 CFU Haemophilus influenzae hd2 infected in ICR mouse systemic infection model assessed as mouse protection administered orally twice after 1 and 4 hrs post infection measured after 48 hrs; assay type: functional

CN1CCN(c2ccc(N3C[C@H](CO)OC3=O)cc2F)C=N1 [DELPAZOLID]
active: Activity (Staphylococcus aureus [1]) | Activity (Staphylococcus aureus [2]) | Activity (Staphylococcus aureus [3]) | Activity (Staphylococcus aureus [4]) | Activity (Staphylococcus aureus [5]) | Activity (Staphylococcus aureus [6]) | Activity (Staphylococcus aureus [7]) | Activity (Staphylococcus aureus [8]) | Activity (Staphylococcus aureus [9]) | Activity (Staphylococcus aureus [22]) | Activity (Staphylococcus aureus [23]) | Activity (Staphylococcus aureus [24])
8 µg/mL: MIC (Haemophilus influenzae [10]) | MIC50 (Haemophilus influenzae [15]) | MIC90 (Haemophilus influenzae [15]) | MIC90 (Moraxella catarrhalis)
0.5 µg/mL: MIC (Streptococcus pneumoniae [11]) | MIC (Staphylococcus [17]) | MIC50 (Staphylococcus [17]) | MIC90 (Staphylococcus [17]) | MIC50 (Streptococcus pneumoniae [18]) | MIC (Staphylococcus [19]) | MIC50 (Staphylococcus [19]) | MIC90 (Staphylococcus [19])
2 µg/mL: MIC (Enterococcus faecalis [12]) | MIC50 (Enterococcus faecium) | MIC90 (Enterococcus faecium) | MIC50 (Enterococcus faecalis [16]) | MIC90 (Enterococcus faecalis [16]) | MIC90 (Streptococcus pyogenes) | MIC90 (Staphylococcus aureus [20]) | MIC90 (Staphylococcus aureus [21])
4 µg/mL: MIC50 (Moraxella catarrhalis)
1 µg/mL: MIC (Staphylococcus aureus [13]) | MIC (Staphylococcus aureus [14]) | MIC (Enterococcus) | MIC50 (Enterococcus) | MIC90 (Enterococcus) | MIC50 (Streptococcus pyogenes) | MIC90 (Streptococcus pneumoniae [18]) | MIC50 (Staphylococcus aureus [20]) | MIC50 (Staphylococcus aureus [21])

CC[C@H]1OC(=O)[C@H](C)[C@@H](O[C@H]2C[C@@](C)(OC)[C@@H](O)[C@H](C)O2)[C@H](C)[C@@H](O[C@@H]2O[C@H](C)C[C@H](N(C)C)[C@H]2O)[C@](C)(O)C[C@@H](C)C(=O)[C@H](C)[C@@H](O)[C@]1(C)O [ERYTHROMYCIN]
2 µg/mL: MIC90 (Streptococcus pyogenes)
64 µg/mL: MIC (Haemophilus influenzae [15]) | MIC50 (Haemophilus influenzae [15]) | MIC50 (Streptococcus pneumoniae [18])
> 64 µg/mL: MIC90 (Haemophilus influenzae [15]) | MIC50 (Enterococcus) | MIC90 (Enterococcus) | MIC50 (Enterococcus faecium) | MIC90 (Enterococcus faecium) | MIC50 (Enterococcus faecalis [16]) | MIC90 (Enterococcus faecalis [16]) | MIC50 (Staphylococcus [17]) | MIC90 (Streptococcus pneumoniae [18]) | MIC90 (Staphylococcus [19]) | MIC50 (Staphylococcus aureus [20]) | MIC90 (Staphylococcus aureus [21])
0.06 µg/mL: MIC50 (Streptococcus pyogenes)
0.25 µg/mL: MIC50 (Staphylococcus [19]) | MIC50 (Staphylococcus aureus [21])

CO/N=C1\CN(c2nc3c(cc2F)c(=O)c(C(=O)O)cn3C2CC2)CC1CN (stereo not given) [GEMIFLOXACIN]
< 0.008 µg/mL: MIC50 (Moraxella catarrhalis) | MIC90 (Moraxella catarrhalis)
0.03 µg/mL: MIC50 (Streptococcus pyogenes) | MIC50 (Streptococcus pneumoniae [18])
1 µg/mL: MIC90 (Staphylococcus [17])
0.125 µg/mL: MIC50 (Enterococcus faecalis [16])
0.5 µg/mL: MIC50 (Enterococcus) | MIC50 (Staphylococcus [17]) | MIC90 (Staphylococcus [19])
0.008 µg/mL: MIC (Haemophilus influenzae [15]) | MIC50 (Haemophilus influenzae [15]) | MIC90 (Haemophilus influenzae [15])
16 µg/mL: MIC90 (Enterococcus faecium)
64 µg/mL: MIC90 (Staphylococcus aureus [20])
2 µg/mL: MIC90 (Enterococcus) | MIC50 (Enterococcus faecium) | MIC50 (Staphylococcus aureus [20])
0.015 µg/mL: MIC50 (Staphylococcus [19]) | MIC50 (Staphylococcus aureus [21])
0.06 µg/mL: MIC90 (Streptococcus pyogenes) | MIC90 (Streptococcus pneumoniae [18]) | MIC90 (Staphylococcus aureus [21])
4 µg/mL: MIC90 (Enterococcus faecalis [16])

CC(=O)NC[C@H]1CN(c2ccc(N3CCOCC3)c(F)c2)C(=O)O1 [LINEZOLID]
16 µg/mL: MIC (Haemophilus influenzae [25]) | MIC90 (Moraxella catarrhalis)
1 µg/mL: MIC (Staphylococcus [17]) | MIC50 (Staphylococcus [17]) | MIC90 (Staphylococcus [17]) | MIC50 (Streptococcus pneumoniae [18]) | MIC90 (Streptococcus pneumoniae [18]) | MIC (Staphylococcus [19]) | MIC50 (Staphylococcus [19])
8 µg/mL: MIC50 (Moraxella catarrhalis)
2 µg/mL: MIC (Enterococcus) | MIC50 (Enterococcus) | MIC90 (Enterococcus) | MIC50 (Enterococcus faecium) | MIC90 (Enterococcus faecium) | MIC50 (Enterococcus faecalis [16]) | MIC90 (Enterococcus faecalis [16]) | MIC50 (Streptococcus pyogenes) | MIC90 (Streptococcus pyogenes) | MIC90 (Staphylococcus [19]) | MIC50 (Staphylococcus aureus [20]) | MIC90 (Staphylococcus aureus [20]) | MIC50 (Staphylococcus aureus [21]) | MIC90 (Staphylococcus aureus [21])

Cc1onc(-c2ccccc2)c1C(=O)N[C@@H]1C(=O)N2[C@@H]1SC(C)(C)[C@@H]2C(=O)O [OXACILLIN]
0.125 µg/mL: MIC50 (Staphylococcus [19])
< 0.008 µg/mL: MIC50 (Haemophilus influenzae [15])
16 µg/mL: MIC50 (Enterococcus faecalis [16]) | MIC90 (Streptococcus pneumoniae [18])
> 64 µg/mL: MIC50 (Enterococcus) | MIC90 (Enterococcus) | MIC50 (Enterococcus faecium) | MIC90 (Enterococcus faecium) | MIC90 (Enterococcus faecalis [16]) | MIC50 (Staphylococcus [17]) | MIC90 (Staphylococcus [17]) | MIC50 (Staphylococcus aureus [20]) | MIC90 (Staphylococcus aureus [20])
0.5 µg/mL: MIC50 (Streptococcus pyogenes) | MIC90 (Staphylococcus aureus [21])
0.25 µg/mL: MIC50 (Staphylococcus aureus [21])
0.015 µg/mL: MIC90 (Haemophilus influenzae [15])
8 µg/mL: MIC90 (Streptococcus pyogenes) | MIC50 (Streptococcus pneumoniae [18])
0.06 µg/mL: MIC50 (Moraxella catarrhalis) | MIC90 (Moraxella catarrhalis)
1 µg/mL: MIC90 (Staphylococcus [19])

CN[C@H](CC(C)C)C(=O)N[C@H]1C(=O)N[C@@H](CC(N)=O)C(=O)N[C@H]2C(=O)N[C@H]3C(=O)N[C@H](C(=O)N[C@H](C(=O)O)c4cc(O)cc(O)c4-c4cc3ccc4O)[C@H](O)c3ccc(c(Cl)c3)Oc3cc2cc(c3O[C@@H]2O[C@H](CO)[C@@H](O)[C@H](O)[C@H]2O[C@H]2C[C@](C)(N)[C@H](O)[C@H](C)O2)Oc2ccc(cc2Cl)[C@H]1O [VANCOMYCIN]
> 64 µg/mL: MIC50 (Haemophilus influenzae [15]) | MIC90 (Haemophilus influenzae [15]) | MIC50 (Enterococcus) | MIC90 (Enterococcus)
2 µg/mL: MIC90 (Enterococcus faecium) | MIC50 (Enterococcus faecalis [16]) | MIC50 (Staphylococcus [17]) | MIC90 (Staphylococcus [17]) | MIC50 (Staphylococcus [19]) | MIC90 (Staphylococcus aureus [20])
4 µg/mL: MIC90 (Enterococcus faecalis [16]) | MIC90 (Staphylococcus [19])
0.5 µg/mL: MIC50 (Streptococcus pneumoniae [18])
1 µg/mL: MIC50 (Enterococcus faecium) | MIC50 (Streptococcus pyogenes) | MIC90 (Streptococcus pyogenes) | MIC90 (Streptococcus pneumoniae [18]) | MIC50 (Staphylococcus aureus [20]) | MIC50 (Staphylococcus aureus [21]) | MIC90 (Staphylococcus aureus [21])
